In general, IC50 refers to the concentration at which inhibition is half-maximal. Low readings indicate inhibition by little substance, high ones a need for much substance.

The record followed here is patent US12581252B2, “Substituted pyrrolo[3,4-b]pyridines as PI3K-α inhibitors” (Relay Therapeutics, Inc., priority 2020, dated 2026).

Where only a bound is given, the exact number is not on record here.

For this assay, the target named is H1047R PIK3CA enzyme (Homo sapiens, UniProt P42336, H1047R). Put plainly: ADP-Glo Biochemical PIK3CA Kinase Assay. (ADP-Glo turns the ADP formed in a reaction into a luminescent signal.)
Chain of H1047R PIK3CA enzyme (P42336 whole entry H1047R): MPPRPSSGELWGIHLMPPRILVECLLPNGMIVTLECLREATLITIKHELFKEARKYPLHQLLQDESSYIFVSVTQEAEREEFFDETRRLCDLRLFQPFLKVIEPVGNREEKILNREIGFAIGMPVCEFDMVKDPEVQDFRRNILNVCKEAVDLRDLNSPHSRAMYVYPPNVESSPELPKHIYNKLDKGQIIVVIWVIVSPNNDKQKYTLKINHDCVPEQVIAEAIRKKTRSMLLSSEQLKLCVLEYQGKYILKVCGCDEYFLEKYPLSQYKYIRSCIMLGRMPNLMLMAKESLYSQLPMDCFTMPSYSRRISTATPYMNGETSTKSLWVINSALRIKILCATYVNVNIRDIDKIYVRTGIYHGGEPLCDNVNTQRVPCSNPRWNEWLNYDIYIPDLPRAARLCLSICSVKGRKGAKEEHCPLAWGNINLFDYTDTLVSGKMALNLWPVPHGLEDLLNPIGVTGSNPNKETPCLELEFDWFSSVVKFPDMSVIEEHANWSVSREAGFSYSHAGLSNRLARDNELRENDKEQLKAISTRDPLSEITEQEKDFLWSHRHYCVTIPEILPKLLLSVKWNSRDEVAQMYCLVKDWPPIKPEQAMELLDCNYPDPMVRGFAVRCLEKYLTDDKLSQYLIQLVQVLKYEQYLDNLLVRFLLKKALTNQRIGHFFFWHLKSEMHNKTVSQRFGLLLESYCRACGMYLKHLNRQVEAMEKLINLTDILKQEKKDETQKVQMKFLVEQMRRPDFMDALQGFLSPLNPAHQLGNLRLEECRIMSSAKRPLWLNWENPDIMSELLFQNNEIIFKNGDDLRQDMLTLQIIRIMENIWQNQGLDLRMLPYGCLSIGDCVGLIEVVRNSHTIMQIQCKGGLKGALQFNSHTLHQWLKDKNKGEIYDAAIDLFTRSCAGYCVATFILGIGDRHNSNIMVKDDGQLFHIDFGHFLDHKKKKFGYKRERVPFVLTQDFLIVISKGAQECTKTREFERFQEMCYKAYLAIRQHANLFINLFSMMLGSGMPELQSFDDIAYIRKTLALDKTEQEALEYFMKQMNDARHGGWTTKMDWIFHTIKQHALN
Chain of H1047R PIK3CA enzyme (P27986 whole entry partner): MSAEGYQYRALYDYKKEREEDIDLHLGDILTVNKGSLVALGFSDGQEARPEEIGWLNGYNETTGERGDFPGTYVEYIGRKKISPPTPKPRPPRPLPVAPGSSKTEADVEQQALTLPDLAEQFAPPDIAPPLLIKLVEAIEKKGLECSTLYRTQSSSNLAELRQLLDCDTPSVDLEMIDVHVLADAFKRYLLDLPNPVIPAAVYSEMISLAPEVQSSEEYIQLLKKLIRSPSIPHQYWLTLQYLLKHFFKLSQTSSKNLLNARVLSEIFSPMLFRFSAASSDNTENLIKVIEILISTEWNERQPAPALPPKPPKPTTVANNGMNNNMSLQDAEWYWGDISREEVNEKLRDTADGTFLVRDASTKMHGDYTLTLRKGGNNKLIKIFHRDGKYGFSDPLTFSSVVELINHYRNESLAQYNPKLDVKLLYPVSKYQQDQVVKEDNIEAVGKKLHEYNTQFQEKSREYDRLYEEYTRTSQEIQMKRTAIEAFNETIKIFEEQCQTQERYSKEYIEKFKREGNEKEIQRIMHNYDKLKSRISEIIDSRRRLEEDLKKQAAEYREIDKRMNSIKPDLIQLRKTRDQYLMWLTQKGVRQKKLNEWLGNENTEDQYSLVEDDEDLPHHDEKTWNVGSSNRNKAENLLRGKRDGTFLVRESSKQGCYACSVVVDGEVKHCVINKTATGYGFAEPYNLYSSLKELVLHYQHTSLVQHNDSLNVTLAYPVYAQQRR
In turn, `O=C(Nc1cc(CS(=O)(=O)c2ccccc2)cc2c1[C@@H](c1cc(F)ccc1Cl)NC2=O)c1cc(F)cc(C(F)(F)F)c1` [Compound I-1593] returned an IC50 of 1 to 10 µM.

As for `CC(C)(O)c1cc(NC(=O)N2C[C@@H](O)c3ccccc32)c2c(c1)C(=O)N[C@@H]2c1cc(F)ccc1Cl` (single isomer, unassigned) [Compound I-2122], the IC50 was 10 to 100 µM. The result for `O=C1NC(c2cc(F)ccc2Cl)c2c(Cn3ccccc3=O)cc(-c3ccc4ncnn4c3)cc21` (stereo not drawn) [Compound I-1980] reads 10 to 100 µM; that for `O=C(Nc1cc(Br)cc2c1C(c1cc(F)ccc1Cl)NC2=O)c1cc(F)cc2c1NC(=O)C2(F)F` (stereo not drawn) [Compound I-1381], 0.1 to 0.5 µM. Next, `Cc1ccccc1C1NC(=O)Oc2cccc(NC(=O)c3csc4ccccc34)c21` (stereo not drawn) [Compound I-294]: 0.1 to 0.5 µM; `O=C(Nc1cc(OCC2CCO2)cc2c1C(c1cc(F)ccc1Cl)NC2=O)c1cc(F)cc(C(F)(F)F)c1` (racemic) [Compound I-1366]: at most 0.1 µM; `C/S(Cc1cc(NC(=O)c2cc(F)cc(C(F)(F)F)c2)c2c(c1)C(=O)NC2c1cc(F)ccc1Cl)=N\C#N` (stereo not drawn) [Compound I-1494]: at most 0.1 µM. Next, `O=C1N[C@H](c2cc(F)ccc2Cl)c2c(NC(=O)[C@@H]3CC[C@H](O)C3)cc(Br)cc21` (single isomer, unassigned) [Compound I-2105]: 10 to 100 µM; `COCC(=O)Nc1cc(NC(=O)c2cc(F)cc(C(F)(F)F)c2)c2c(c1)C(=O)NC2c1cc(F)ccc1Cl` (stereo not drawn) [Compound I-346]: at most 0.1 µM. Regarding `O=C1NC(c2cc(F)ccc2Cl)c2c(NC(=O)C3(c4ccccc4)CCCC3)cc(Br)cc21` (stereo not drawn) [Compound I-604], the IC50 lay in the range of 1 to 10 µM. The result for `O=C1N[C@@H](c2cc(F)ccc2Cl)c2c(NC(=O)N3C[C@@H](O)c4cc(F)ccc43)cc(Cl)cc21` (single isomer, unassigned) [Compound I-2401] reads 10 to 100 µM. Consider `O=C(Nc1cc(-c2ccc3nc(C(F)F)cn3c2)cc2c1[C@@H](c1cc(F)ccc1Cl)NC2=O)c1cc(F)cc(C(F)(F)F)c1` [Compound I-1928], for which the IC50 was in the range of 1 to 10 µM. As for `NC1CCCCC1C(=O)Nc1cc(-c2ccc3ncnn3c2)cc2c1C(c1cc(F)ccc1Cl)NC2=O` (stereo not drawn) [Compound I-1982], the IC50 was 10 to 100 µM. The result for `CS(=O)(=O)Nc1cc(-c2ccc3ncnn3c2)cc2c1C(c1cc(F)ccc1Cl)NC2=O` (stereo not drawn) [Compound I-1898] reads 1 to 10 µM; that for `Cc1cccnc1C1NC(=O)c2cccc(NC(=O)c3csc4ccccc34)c21` (stereo not drawn) [Compound I-49], 1 to 10 µM. Next, `[2H][C@@]1(c2cc(F)ccc2Cl)NC(=O)c2cc(-c3ccc4ncnn4c3)cc(NC(=O)c3cc(F)cc(C(F)(F)F)c3)c21` (single isomer, unassigned) [Compound I-1601]: at most 0.1 µM. Next, `O=C(Nc1cc(NC(=O)C2CCOCC2)cc2c1C(c1cc(F)ccc1Cl)NC2=O)c1cc(F)cc(C(F)(F)F)c1` (stereo not drawn) [Compound I-347]: at most 0.1 µM. Compound `O=C1NC(c2cc(F)ccc2Cl)c2c(Nc3c[nH]c4ccccc34)cc(Br)cc21` (stereo not drawn) [Compound I-1896] gave a half-inhibitory concentration (IC50) of 10 to 100 µM. Next, `CN1CCCC[C@H]1C(=O)Nc1cc(-c2ccc3ncnn3c2)cc2c1[C@@H](c1cc(F)ccc1Cl)NC2=O` (racemic) [Compound I-1947]: 10 to 100 µM; `O=C(Cc1ccccc1C(F)(F)F)Nc1cc(Br)cc2c1C(c1cc(F)ccc1Cl)NC2=O` (stereo not drawn) [Compound I-568]: 1 to 10 µM; `CC(C)n1cc(-c2cc(NC(=O)c3cc(F)cc(C(F)(F)F)c3)c3c(c2)C(=O)N[C@@H]3c2cc(F)ccc2Cl)ccc1=O` [Compound I-742]: 1 to 10 µM. The result for `CNC(=O)c1cc(NC(=O)c2cc(F)cc(C(F)(F)F)c2)c2c(c1)C(=O)NC2c1ccccc1C` (stereo not drawn) [Compound I-156] reads at most 0.1 µM; that for `O=C1NC(c2cc(F)ccc2Cl)c2c(NC(=O)c3ccnc4ccc(Cl)cc34)cc(Br)cc21` (stereo not drawn) [Compound I-606], 10 to 100 µM; that for `O=C(Nc1cc(Cc2ccc3c(c2)CNC3=O)cc2c1[C@H](c1cc(F)ccc1Cl)NC2=O)c1cc(F)cc(C(F)(F)F)c1` (stereo in doubt) [Compound I-1612], at most 0.1 µM.

The compound `O=C1NC(c2cc(F)ccc2Cl)c2c(NC(=O)N3CC(CO)c4ccccc43)cccc21` (mixture of isomers) [Compound I-2314] came in with an IC50 of 1 to 10 µM. The result for `Cn1cncc1C#Cc1cc(NC(=O)c2cc(F)cc(C(F)(F)F)c2)c2c(c1)C(=O)NC2c1cc(F)ccc1Cl` (stereo not drawn) [Compound I-1247] reads at most 0.1 µM; that for `CCOC(=O)Cc1cc(F)cc(C(=O)Nc2cc(CC(=O)OCC)cc3c2C(c2cc(F)ccc2Cl)NC3=O)c1` (stereo not drawn) [Compound I-697], 1 to 10 µM; that for `C[C@H](c1nn[nH]c1C(=O)Nc1cccc2c1[C@@H](c1cc(F)ccc1Cl)NC2=O)C(F)(F)F` (single isomer, unassigned) [Compound I-2268], 10 to 100 µM.

Turning to `O=C(Nc1cccc2c1C(C(=O)NC1CCCCC1)NC2=O)c1cc(F)cc(C(F)(F)F)c1` (stereo not drawn) [Compound I-2054], the IC50 was 10 to 100 µM. Next, `Cn1cc(-c2cc(NC(=O)c3cc(F)cc(C(F)(F)F)c3)c3c(c2)C(=O)NC3c2cc(F)ccc2Cl)c(C#N)n1` (stereo not drawn) [Compound I-1656]: at most 0.1 µM; `O=C(Nc1cc(N2CCn3cnnc3C2)cc2c1C(c1cc(F)ccc1Cl)NC2=O)c1cc(F)cc(C(F)(F)F)c1` (stereo not drawn) [Compound I-1354]: at most 0.1 µM. Next, `Cc1ccccc1C1NC(=O)c2cccc(NC(=O)N3CC(C)c4ccccc43)c21` (stereo not drawn) [Compound I-95]: 0.1 to 0.5 µM. Next, `O=C(Nc1cc(CNC2CC(F)(F)C2)cc2c1C(c1cc(F)ccc1Cl)NC2=O)c1cc(F)cc(C(F)(F)F)c1` (stereo not drawn) [Compound I-349]: at most 0.1 µM; `O=C(Nc1cc(Nc2ccno2)cc2c1C(c1cc(F)ccc1Cl)NC2=O)c1cc(F)cc(C(F)(F)F)c1` (stereo not drawn) [Compound I-1115]: at most 0.1 µM; `CC(C)(O)Cc1cc(NC(=O)c2cc(F)cc(C(F)(F)F)c2)c2c(c1)C(=O)N[C@H]2c1cc(F)ccc1Cl` [Compound I-621]: at most 0.1 µM. With `Cc1ccccc1C1NC(=O)c2cccc(NC(=O)c3n[nH]cc3Br)c21` (stereo not drawn) [Compound I-411], the IC50 is 10 to 100 µM.

`CS(=O)(=O)n1cc(-c2cc(NC(=O)c3cc(F)cc(C(F)(F)F)c3)c3c(c2)C(=O)N[C@H]3c2cc(F)ccc2Cl)cn1` [Compound I-1996] displayed an IC50 of at most 0.1 µM.

In turn, `CC(=O)N1CCCC(C2NC(=O)c3cccc(NC(=O)c4cc(F)cc(C(F)(F)F)c4)c32)C1` (racemic) [Compound I-1771] yielded a half-inhibitory concentration (IC50) of 10 to 100 µM. The result for `O=C(Nc1cc(Br)cc2c1C(c1cc(F)ccc1Cl)NC2=O)c1cc(F)cc(Cl)c1` (stereo not drawn) [Compound I-216] reads at most 0.1 µM; that for `O=C1N[C@H](c2cc(F)ccc2Cl)c2c(NC(=O)N3C[C@H](O)c4ccccc43)cc(-c3ccc4ncnn4c3)cc21` (single isomer, unassigned) [Compound I-1578], 10 to 100 µM; that for `CC(C)(C#N)n1cc(-c2cc(NC(=O)c3cc(F)cc(C(F)(F)F)c3)c3c(c2)C(=O)N[C@@H]3c2cc(F)ccc2Cl)cn1` [Compound I-1660], 0.5 to 1 µM.

In turn, `O=C1NC(c2cc(F)ccc2Cl)c2c(NC(=O)C3CCCC(C(F)(F)F)C3)cc(-c3ccc4ncnn4c3)cc21` (mixture of isomers) [Compound I-1816] showed a concentration for half-maximal inhibition (IC50) of at most 0.1 µM.
